Source: patent US12312621B2, “Reprogramming urokinase into an antibody-recruiting anticancer agent” (YALE UNIVERSITY, priority 2011, dated 2025)

Assay: Storage stability of stock solution in water
Type: physicochemical
Protocol: Synthesis of guanidinium 1 Into a flask were added crude peptide 1v (0.120 mmol, 1 equiv), and a mixture of TFA, TiPS, and water (38:1:1, 2 mL, 0.06 M, producing a homogeneous solution). The mixture was stirred in the dark (1.5 h) and diluted with toluene (3 mL). Volatiles were removed under reduced pressure (2×toluene azeotrope). The crude mixture was dissolved in water (2 mL) and washed with EtOAc (2×2 mL). The aqueous phase was purified by semi-preparative RP-HPLC (C18 column, water+0.1% TFA with 15-35% MeCN over 30 min, product isomers elute at 14.5 and 15.4 min) to yield pure guanidinium 1 (58 mg, 0.049 mmol, 41% yield) as a mixture (approximately 1:1) of regioisomers at fluorescein and as a yellow solid. The regioisomeric ratio was measured by ^1H NMR. ^1H NMR signals were assigned by ^1H-^1H COSY.
Synthesis of guanidinium 2 Into a flask were added crude peptide 2g (0.150 mmol, 1 equiv), and a mixture of TFA, TiPS, and water (38:1:1, 2 mL, 0.07 M). The mixture was stirred (1.5 h) and diluted with toluene (3 mL). Volatiles were removed under reduced pressure (2×toluene azeotrope). The crude mixture was dissolved in water (2 mL) and washed with EtOAc (2×2 mL). […]

N=C(N)NCCC[C@H](NC(=O)CNC(=O)[C@@H](N)CCC(=O)NCCCOCCOCCOCCCNc1ccc([N+](=O)[O-])cc1[N+](=O)[O-])C(=O)CCl [compound 2]
stability of stock solution: stable for at least several months
